Measured values reported in patent publication US12419874B2, “GLP-1R agonist compound and use thereof” (Chongqing Pharmaceutical Research Institute Co., Ltd., priority 2024, dated 2025).

Molecular target: GLP-1R (Homo sapiens, UniProt P43220)
Assay: GLP-1R agonistic activity by One-Lite luciferase assay in HEK293-GLP-1R-luc cells (Example 59)
Format: cell-based
Settings: 6 h incubation, read-out: cAMP EC50
Method: The agonistic activities of the compounds of the present disclosure on GLP-1R were evaluated by detecting the generation of cAMP.
• (1) Cell line: HEK293-GLP-1R-luc Stable Cell Line (Cobioer, CBP71117); • (2) Culture medium: DMEM+10% FBS (Gibco); • (3) Kit: One-Lite™ kit Luciferase Assay System (Vazyme). 2. Experimental Procedures • (1) HEK293-GLP1R cells were inoculated in a 96-well plate at a density of 30000 cells per well; • (2) 10× working solution of each compound was formulated; • (3) 10 μL of 10× working solution of each compound was added to corresponding well and incubated at 37° C. for 6 h; • (4) 100 μL of One-Lite Luciferase Assay Substrate formulated using One-Lite Luciferase Assay Buffer was added to each well; • (5) The plate was incubated at room temperature for 3 min; • (6) The plate was read by a multimode microplate reader to detect chemiluminescence. 3. Data Analysis • (1) % Activity was calculated by the following formula: % Activity=100−(Signalcmpd−SignalAve-PC)/(SignalAve-VC−SignalAve-PC)×100 • (2) The dose-response curve was plotted to calculate EC50: Y=Bottom+(Top−Bottom)/(1+10^(Log EC50−X)*HillSlope)) • X: log of agonist concentration; Y: Activity. 4. Experimental Results

Sequence of GLP-1R (P43220 24-463): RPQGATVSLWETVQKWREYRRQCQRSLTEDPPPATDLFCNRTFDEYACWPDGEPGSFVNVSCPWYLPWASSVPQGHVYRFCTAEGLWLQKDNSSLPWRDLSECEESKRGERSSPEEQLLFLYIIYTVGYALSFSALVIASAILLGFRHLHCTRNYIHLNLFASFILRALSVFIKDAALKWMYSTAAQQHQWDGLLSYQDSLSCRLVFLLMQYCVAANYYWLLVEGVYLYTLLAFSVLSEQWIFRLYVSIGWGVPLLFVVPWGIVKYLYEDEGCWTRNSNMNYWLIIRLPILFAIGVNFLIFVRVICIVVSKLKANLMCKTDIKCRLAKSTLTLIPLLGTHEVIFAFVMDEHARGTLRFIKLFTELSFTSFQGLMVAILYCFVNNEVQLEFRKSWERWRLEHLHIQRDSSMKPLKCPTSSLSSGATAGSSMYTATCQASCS

Row | SMILES | EC50
1 | COC1CC2(C1)CN(C(=O)c1cc3cc([C@H]4CCOC(C)(C)C4)ccc3n1[C@@]1(c3noc(=O)[nH]3)C[C@@H]1C)[C@@H](C)c1c2nn(-c2cc(C)c(F)c(C)c2)c1-n1ccn(-c2ccc3c(cnn3C)c2F)c1=O (stereo partly drawn) [Compound 184] | ≤ 20 nM
2 | COC1CC2(CC1OC)CN(C(=O)c1cc3cc([C@H]4CCOC(C)(C)C4)ccc3n1[C@@]1(c3noc(=O)[nH]3)C[C@@H]1C)[C@@H](C)c1c2nn(-c2cc(C)c(F)c(C)c2)c1-n1ccn(-c2ccc3c(cnn3C)c2F)c1=O (stereo partly drawn) [Compound 214] | ≤ 20 nM
3 | Cc1cc(-n2nc3c(c2-n2ccn(-c4ccc5c(cnn5C)c4F)c2=O)[C@H](C)N(C(=O)c2cc4cc([C@H]5CCOC(C)(C)C5)ccc4n2[C@@]2(c4noc(=O)[nH]4)C[C@@H]2C)CC32CC(C)C2)cc(C)c1F (stereo partly drawn) [Compound 219] | ≤ 20 nM
4 | C[C@H]1C[C@]1(c1noc(=O)[nH]1)n1c(C(=O)N2C3CCCC2c2c(nn(-c4ccc(F)c(C5CC5)c4)c2-n2ccn(-c4ccc5c(cnn5C)c4F)c2=O)C3)cc2cc([C@H]3CCOC(C)(C)C3)ccc21 (stereo partly drawn) [Compound 151] | ≤ 20 nM
5 | Cc1cc(-n2nc3c(c2-n2ccn(-c4ccc5c(cnn5C)c4F)c2=O)[C@H](C)N(C(=O)c2cc4cc([C@H]5CCOC(C)(C)C5)ccc4n2[C@@]2(c4noc(=O)[nH]4)C[C@@H]2C)CC32CCC(=O)CC2)cc(C)c1F [Compound 198] | ≤ 20 nM
6 | CNC(=O)N1CCC2(CC1)CN(C(=O)c1cc3cc([C@H]4CCOC(C)(C)C4)ccc3n1[C@@]1(c3noc(=O)[nH]3)C[C@@H]1C)[C@@H](C)c1c2nn(-c2cc(C)c(F)c(C)c2)c1-n1ccn(-c2ccc3c(cnn3C)c2F)c1=O [Compound 163] | ≤ 20 nM
7 | Cc1cc(-n2nc3c(c2-n2ccn(-c4ccc5c(cnn5C)c4F)c2=O)[C@H](C)N(C(=O)c2cc4cc([C@H]5CCOC(C)(C)C5)ccc4n2[C@@]2(c4noc(=O)[nH]4)C[C@@H]2C)CC32CCCCO2)cc(C)c1F (stereo partly drawn) [Compound 39] | ≤ 20 nM
8 | Cc1cc(-n2nc3c(c2-n2ccn(-c4ccc5c(cnn5C)c4F)c2=O)[C@H](C)N(C(=O)c2cc4cc([C@H]5CCOC(C)(C)C5)ccc4n2[C@@]2(c4noc(=O)[nH]4)C[C@@H]2C)CC32CN(C(=O)C(F)(F)F)C2)cc(C)c1F [Compound 167] | ≤ 20 nM
9 | Cc1cc(-n2nc3c(c2-n2ccn(-c4ccc5c(cnn5C)c4F)c2=O)[C@H](C)N(C(=O)c2cc4cc([C@H]5CCOC(C)(C)C5)ccc4n2[C@@]2(c4noc(=O)[nH]4)C[C@@H]2C)CC32CN(C)C2)cc(C)c1F [Compound 164] | ≤ 20 nM
10 | CCn1ncc2c(F)c(-n3ccn(-c4c5c(nn4-c4cc(C)c(F)c(C)c4)C4(CC4)CN(C(=O)c4cc6cc([C@H]7CCOC(C)(C)C7)ccc6n4[C@@]4(c6noc(=O)[nH]6)C[C@@H]4C)[C@H]5C)c3=O)ccc21 [Compound 222] | ≤ 20 nM
11 | Cc1cc(-n2nc3c(c2-n2ccn(-c4ccc5c(cnn5CC(F)(F)F)c4F)c2=O)[C@H](C)N(C(=O)c2cc4cc([C@H]5CCOC(C)(C)C5)ccc4n2[C@@]2(c4noc(=O)[nH]4)C[C@@H]2C)CC32CC2)cc(C)c1F [Compound 223] | ≤ 20 nM
12 | Cc1cc(-n2nc3c(c2-n2ccn(-c4ccc5c(cnn5C)c4F)c2=O)[C@H](C)N(C(=O)c2cc4cc([C@H]5CCOC(C)(C)C5)ccc4n2[C@@]2(c4noc(=O)[nH]4)C[C@@H]2C)CC32CNC2)cc(C)c1F [Compound 15] | ≤ 20 nM
13 | Cc1cc(-n2nc3c(c2-n2ccn(-c4ccc5c(cnn5C)c4F)c2=O)[C@H](C)N(C(=O)c2cc4cc([C@H]5CCOC(C)(C)C5)ccc4n2[C@@]2(c4noc(=O)[nH]4)C[C@@H]2C)CC32CCCN(C)C2)cc(C)c1F (single isomer, unassigned) [Compound 53-A] | ≤ 20 nM
14 | Cc1cc(-n2nc3c(c2-n2ccn(-c4ccc5c(cnn5C)c4F)c2=O)[C@H](C)N(C(=O)c2cc4cc([C@H]5CCOC(C)(C)C5)ccc4n2[C@@]2(c4noc(=O)[nH]4)C[C@@H]2C)CC32CC(N)C2)cc(C)c1F (stereo partly drawn) [Compound 183] | ≤ 20 nM
15 | Cc1cc(-n2nc3c(c2-n2ccn(-c4ccc5c(cnn5C)c4F)c2=O)[C@H](C)N(C(=O)c2cc4cc([C@H]5CCOC(C)(C)C5)ccc4n2[C@@]2(c4noc(=O)[nH]4)C[C@@H]2C)CC32CCSCC2)cc(C)c1F [Compound 188] | ≤ 20 nM
